In patent publication US8445677B2, “Substituted pyrimidyl guanidine derivatives having anticancer activity” (University of Southern California, priority 2008, dated 2013) one finds IC50 data, which are given here for twelve molecules.

Test in all cases: MTT cytotoxicity assay (Example 2)
(In general: Tetrazolium dyes change colour on reduction, which living cells bring about.)

In assay [1] the test system is HCT116 p53+/+. In kind it is cell-based. An excerpt:
(§1) Human breast cancer cell lines MDA-MB-435 and SkBr-3 were purchased from the American Type Culture Collection (Manassas, Va.). The HCT116 P53+/+ and HCT116 P53−/− cell lines were kindly provided by Dr. Bert Vogelstein (Johns Hopkins Medical Institutions, Baltimore, Md.). The HEY human ovarian carcinoma cell line was kindly provided by Dr. Louis Dubeau (University of Southern California Norris Cancer Center). Cells were maintained as monolayer cultures in media supplemented with 10% fetal bovine serum (Gemini-Bioproducts, Woodland, Calif.) and 2 mmo/lL-glutamine at 37° C. in a humidified atmosphere of 5% C02. To remove the adherent cells from the flask for passaging and counting, cells were washed with PBS without calcium or magnesium, incubated with a small volume of 0.25% trypsin-EDTA solution (Sigma-Aldrich, St. Louis, Mo.) for 5-10 min, and washed with culture medium and centrifuged. All experiments were performed using cells in exponential growth stage. Cells were routinely checked for mycoplasma contamination using a PCR-based assay (Stratagene, Cambridge, UK).
(§2) Stock solutions (10 mM) of all compounds were prepared in DMSO and stored at −20° C. Further dilutions were made fresh in cell-culture media just prior to cell treatment.
(§3) Cytotoxicity was assessed by a 3-(4,5-dimethylthiazol-2-yl)-2,5-diphenyltetrazolium bromide (MTT) assay as previously described.^23 Cells were seeded in 96-well plates and allowed to attach overnight. Cells were subsequently treated with continuous exposure to the corresponding drug for 72 h. An MTT solution (at a final concentration of 0.5 mg/ml) was added to each well, and cells were incubated for 4 h at 37° C. After removal of the medium, DMSO was added and the absorbance was read at 570 nm. All assays were performed in triplicate. The IC50 was determined for each drug from a plot of log (drug concentration) versus percentage of cells killed.

Assay [2] has as its system HCT116 p53−/−. In kind it is cell-based. Particulars: Homo sapiens, HCT-116, 72 h.
Source text: as §1, §2, §3

In assay [3] the test system is MDA-MB-435. In kind it is cell-based. Particulars: Homo sapiens, MDA-MB-435, 72 h.
Source text: as §1, §2, §3

Assay [4] deals with SkBr-3. It counts as cell-based, human.
Source text: as §1, §2, §3

Assay [5] concerns HEY. In kind it is cell-based, human. The following applies: 72 h.
Source text: as §1, §2, §3

The mark [6] stands for this setting: Homo sapiens, HCT-116, 72 h, MTT, 72 h, read-out: IC50 Hct116 p53+/+.
[7] abbreviates: MTT, 72 h, read-out: IC50 Hct116 p53+/+.

Structures are written as SMILES. Read-outs that look alike come from different tables or passages of the source.

As for `CC(C)(C)c1cc(=O)[nH]c(Nc2nc3ccccc3s2)n1` [9-SMD18-15-BAS 125346 60], the IC50 in assay [1] (setting [6]) was 9900 nM; in assay [2] it was 9900 nM; in assay [3], 7.5 µM; in assay [4] (Homo sapiens, SK-BR-3, 72 h), over 10 µM.
For `COC(=O)/C=C1/N=C(Nc2nc3ccccc3s2)NC1=O` [5-SMD18], the IC50 is under 10000 nM in assay [1] (setting [6]); 7200 ± 100 nM in assay [1] (setting [7]); 6500 nM in assay [2]; 7 ± 1.1 µM in assay [3]; 7200 ± 200 nM in assay [5]; under 10000 nM in assay [5] (Homo sapiens). The molecule further gave an IC50 in assay [4] (72 h) of 2.5 ± 0.8 µM.
Take `Cc1cc(C)nc(NC(=N)Nc2cc(Oc3ccccc3)ccc2Cl)n1` [1-SMD6]: the IC50 in assay [1] (setting [7]) is 1000 ± 700 nM; in assay [2] it was 1500 ± 100 nM; in assay [3] it was 8 ± 0.5 µM; in assay [5], 3500 ± 1600 nM; in assay [4] (72 h), 5 ± 1 µM; in assay [4] (Homo sapiens, SK-BR-3, 72 h), under 10 µM.
`CCC(=O)NC(c1cccs1)c1cc([N+](=O)[O-])c2cccnc2c1O` (centres unmarked) [26-SMD58-27]: the IC50 in assay [1] (setting [6]) amounted to 5000 ± 400 nM; in assay [2], 4200 ± 1200 nM; in assay [3] it was 5.6 µM; in assay [5] (Homo sapiens), 3200 ± 800 nM; in assay [4] (Homo sapiens, SK-BR-3, 72 h) it was 4.6 ± 0.8 µM.
Taken in the same sequence, the figures for `Cc1cccc(NCc2ccc(O)c3ncccc23)c1` [17-SMD58-12] were 1800 ± 400 nM, 1900 ± 400 nM, 6.6 µM, 1500 ± 800 nM and 4 ± 0.5 µM.
As to `CCCOc1ccc(NC(=N)Nc2nc(C)cc(C)n2)cc1` [3-SMD6-5], the IC50 is over 10000 nM in assay [1] (setting [6]); 8100 ± 600 nM in assay [2]; over 10 µM in assay [3]; over 10000 nM in assay [5] (Homo sapiens); over 10 µM in assay [4] (Homo sapiens, SK-BR-3, 72 h).
Consider `Cc1cccc(NCc2ccc(O)c3ncccc23)n1` [24-SMD58-23], for which the IC50 in assay [1] (setting [6]) came to 2800 ± 100 nM; in assay [2], 1600 ± 300 nM; in assay [3], 2.3 µM; in assay [5] (Homo sapiens), 2300 ± 300 nM; in assay [4] (Homo sapiens, SK-BR-3, 72 h), 3.6 ± 0.5 µM.
For `Cc1cccnc1NCc1ccc(O)c2ncccc12` [23-SMD58-22], the IC50 in assay [1] (setting [6]) came out at 1400 ± 400 nM; in assay [2], 1500 ± 100 nM; in assay [3], 3.1 ± 0.6 µM; in assay [5] (Homo sapiens) it was 2800 nM; in assay [4] (Homo sapiens, SK-BR-3, 72 h) it was 3.3 ± 0.7 µM.
As for `CCOC(=O)Cc1cc(=O)nc(Nc2nc3ccccc3s2)[nH]1` [6-SMD18-1], the IC50 is 3400 ± 200 nM in assay [1] (setting [6]); 4000 ± 2000 nM in assay [2]; 9.5 µM in assay [3]; over 10 µM in assay [4] (Homo sapiens, SK-BR-3, 72 h).
Regarding `Oc1ccc(CN2CCN(c3ccccn3)CC2)c2cccnc12` [21-SMD58-19], the IC50 in assay [1] (setting [6]) was determined as 2600 ± 700 nM; in assay [2], 2200 ± 100 nM; in assay [3], 2.7 µM; in assay [5] (Homo sapiens), 2800 ± 600 nM; in assay [4] (Homo sapiens, SK-BR-3, 72 h), 3 ± 1 µM.
Turning to `Oc1ccc(Cc2ccc(O)c3ncccc23)c2cccnc12` [11-SMD58-1], the IC50 in assay [1] (setting [6]) is 450 nM; in assay [1] (Homo sapiens, HCT-116, p53+/+ cell line, read-out: IC50), under 1000 nM; in assay [2], 250 ± 500 nM; in assay [3] it was 2.8 ± 1.7 µM; in assay [5] (Homo sapiens) it was 100 nM; in assay [4] (Homo sapiens, SK-BR-3, 72 h), 1.4 ± 0.8 µM.
For the molecule `CCOC(=O)N1CCN(Cc2ccc(O)c3ncccc23)CC1` [13-SMD58-5], the IC50 in assay [1] (setting [6]) was 2100 ± 200 nM; in assay [2], 1000 ± 100 nM; in assay [3], 5.3 ± 0.1 µM; in assay [5] (Homo sapiens) it was 1900 nM; in assay [4] (Homo sapiens, SK-BR-3, 72 h), 3.7 ± 0.5 µM.
